According to patent publication US11834453B2, “Substituted pyrimido[5,4-d]pyrimidines as HER2 inhibitors” (Array BioPharma Inc., priority 2020, dated 2023):
Read-outs that look alike come from different tables or passages of the source.

Columns and labels:
[1] = biological target: ErbB2 with Exon 20 YVMA insertion (HER2-YVMA) (Homo sapiens (Human), UniProt P04626, INS775YVMA); experiment: Cellular phosphorylation assay, constitutive ErbB2 phosphorylation (Y1196) in engineered NIH 3T3 cells, Assay 4; format: cell-based
ErbB2 with Exon 20 YVMA insertion (HER2-YVMA), sequence (P04626 other isoform, or with tags, fused parts or gaps ins YVMA behind 775): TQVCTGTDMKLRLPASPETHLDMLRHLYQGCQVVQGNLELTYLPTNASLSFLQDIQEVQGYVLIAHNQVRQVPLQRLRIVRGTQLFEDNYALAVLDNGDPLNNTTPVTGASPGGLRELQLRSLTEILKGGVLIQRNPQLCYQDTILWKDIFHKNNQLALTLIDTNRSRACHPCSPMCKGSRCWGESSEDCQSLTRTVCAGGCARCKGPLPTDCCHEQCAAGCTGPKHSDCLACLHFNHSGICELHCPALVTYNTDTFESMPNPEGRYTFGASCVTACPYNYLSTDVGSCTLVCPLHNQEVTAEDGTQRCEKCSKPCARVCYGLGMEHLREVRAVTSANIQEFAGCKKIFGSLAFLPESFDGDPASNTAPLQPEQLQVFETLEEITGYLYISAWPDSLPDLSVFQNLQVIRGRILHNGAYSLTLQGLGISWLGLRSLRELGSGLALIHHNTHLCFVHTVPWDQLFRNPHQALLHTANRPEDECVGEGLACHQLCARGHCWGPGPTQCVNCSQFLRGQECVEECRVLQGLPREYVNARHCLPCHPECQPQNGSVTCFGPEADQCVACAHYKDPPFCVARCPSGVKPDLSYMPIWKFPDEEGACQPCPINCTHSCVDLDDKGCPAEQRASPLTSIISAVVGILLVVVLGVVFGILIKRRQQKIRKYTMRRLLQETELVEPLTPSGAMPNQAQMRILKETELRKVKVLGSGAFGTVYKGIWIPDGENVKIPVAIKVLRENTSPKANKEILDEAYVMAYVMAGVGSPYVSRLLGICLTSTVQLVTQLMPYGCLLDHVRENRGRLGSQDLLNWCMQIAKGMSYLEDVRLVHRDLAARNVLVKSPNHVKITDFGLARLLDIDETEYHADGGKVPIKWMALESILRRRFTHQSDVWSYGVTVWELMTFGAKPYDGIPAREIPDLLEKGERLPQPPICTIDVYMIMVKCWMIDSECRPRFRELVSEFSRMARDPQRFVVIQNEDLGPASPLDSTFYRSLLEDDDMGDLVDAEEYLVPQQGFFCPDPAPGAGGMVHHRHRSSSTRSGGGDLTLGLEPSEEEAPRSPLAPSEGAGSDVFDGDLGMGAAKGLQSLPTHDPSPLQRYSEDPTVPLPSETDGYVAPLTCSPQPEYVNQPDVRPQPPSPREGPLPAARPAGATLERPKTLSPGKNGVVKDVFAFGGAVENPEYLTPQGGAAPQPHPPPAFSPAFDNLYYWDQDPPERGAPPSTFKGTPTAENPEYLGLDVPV
Procedure, shortened: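 In-cell Western in NIH 3T3 cells carrying ErbB2 exon 20 YVMA insertion, with no ligand stimulation. One hour compound exposure at 37 °C before fixation and anti-pY1196 plus GAPDH staining with dual-wavelength fluorescence. IC50 derived after GAPDH normalization.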

[2] = biological target: ErbB2 insYVMA (HER2-YVMA, SEQ ID NO: 2) (Homo sapiens, UniProt P04626, INS775YVMA/P1170A); experiment: biochemical; conditions: ErbB2 insYVMA enzyme assay
[3] = biological target: ErbB2 WT (Homo sapiens (Human), UniProt P04626); experiment: ErbB enzyme assay (CisBio HTRF KinEASE-TK), Assay 2; format: biochemical
ErbB2 WT, sequence (P04626 23-1255): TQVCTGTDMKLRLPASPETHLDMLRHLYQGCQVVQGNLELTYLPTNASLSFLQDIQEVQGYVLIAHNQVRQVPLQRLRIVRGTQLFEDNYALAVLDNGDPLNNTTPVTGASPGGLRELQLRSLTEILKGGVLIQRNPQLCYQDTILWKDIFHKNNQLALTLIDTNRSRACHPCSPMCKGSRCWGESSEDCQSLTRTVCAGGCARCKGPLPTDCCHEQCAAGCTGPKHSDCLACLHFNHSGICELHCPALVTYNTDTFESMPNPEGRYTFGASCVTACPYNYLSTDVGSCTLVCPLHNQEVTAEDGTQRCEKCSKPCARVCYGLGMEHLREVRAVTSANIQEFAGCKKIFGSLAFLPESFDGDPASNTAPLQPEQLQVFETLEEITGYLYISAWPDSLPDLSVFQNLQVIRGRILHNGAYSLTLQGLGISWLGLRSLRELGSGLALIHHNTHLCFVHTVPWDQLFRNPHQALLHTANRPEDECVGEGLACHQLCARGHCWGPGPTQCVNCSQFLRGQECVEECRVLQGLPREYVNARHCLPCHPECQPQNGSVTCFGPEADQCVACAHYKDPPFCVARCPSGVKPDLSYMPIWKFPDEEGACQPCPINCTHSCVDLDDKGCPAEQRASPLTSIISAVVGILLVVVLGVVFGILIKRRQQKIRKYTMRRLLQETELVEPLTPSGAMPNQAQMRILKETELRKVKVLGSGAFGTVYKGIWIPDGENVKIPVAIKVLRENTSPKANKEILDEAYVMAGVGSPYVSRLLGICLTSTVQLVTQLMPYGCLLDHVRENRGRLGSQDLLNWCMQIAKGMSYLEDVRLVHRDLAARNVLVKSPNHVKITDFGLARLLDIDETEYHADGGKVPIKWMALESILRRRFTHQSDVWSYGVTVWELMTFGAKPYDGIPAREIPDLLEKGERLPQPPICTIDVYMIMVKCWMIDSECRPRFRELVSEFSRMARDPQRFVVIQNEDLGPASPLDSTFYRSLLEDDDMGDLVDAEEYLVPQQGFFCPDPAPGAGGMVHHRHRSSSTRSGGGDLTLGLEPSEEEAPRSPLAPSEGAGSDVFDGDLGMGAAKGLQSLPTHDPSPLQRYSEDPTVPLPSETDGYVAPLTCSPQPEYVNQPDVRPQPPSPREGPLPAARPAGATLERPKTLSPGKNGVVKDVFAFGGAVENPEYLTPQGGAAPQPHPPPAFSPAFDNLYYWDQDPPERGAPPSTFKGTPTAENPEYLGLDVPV
Procedure, shortened: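 Readout is HTRF KinEASE-TK, using Sa-XL665 and cryptate antibody for 1 h at 22 °C, as percent of control between DMSO-only (100) and pre-quenched (0) reactions. The kinase reaction runs 30 min at 22 °C with 1 mM ATP and 250 nM biotinylated TK substrate, in HEPES pH 7.4 with MgCl2 and 2% DMSO.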

[4] = biological target: EGFR (Homo sapiens (Human), UniProt P00533); experiment: ErbB enzyme assay (CisBio HTRF KinEASE-TK), Assay 3; format: biochemical
Procedure, shortened: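 IC50 was taken where a 4-parameter logistic fit crossed 50 percent of control (DMSO 100, pre-quenched 0), read by ratiometric HTRF. Reactions ran 30 min at 22 °C with 1 mM ATP and 250 nM TK-substrate biotin in pH 7.4 HEPES buffer with MgCl2, Triton X-100 and 2% DMSO.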

[5] = biological target: MDR1 (P-gp) (Homo sapiens (Human), UniProt P08183); experiment: MDR1 transfected LLC-PK1 permeability/efflux, Assay 6; conditions: pig, LLC-PK1, Assay 6 Pe Ratio, efflux ratio Papp(B-A)/Papp(A-B), MDR1 transfected LLC-PK1
MDR1 (P-gp), sequence (P08183 whole entry): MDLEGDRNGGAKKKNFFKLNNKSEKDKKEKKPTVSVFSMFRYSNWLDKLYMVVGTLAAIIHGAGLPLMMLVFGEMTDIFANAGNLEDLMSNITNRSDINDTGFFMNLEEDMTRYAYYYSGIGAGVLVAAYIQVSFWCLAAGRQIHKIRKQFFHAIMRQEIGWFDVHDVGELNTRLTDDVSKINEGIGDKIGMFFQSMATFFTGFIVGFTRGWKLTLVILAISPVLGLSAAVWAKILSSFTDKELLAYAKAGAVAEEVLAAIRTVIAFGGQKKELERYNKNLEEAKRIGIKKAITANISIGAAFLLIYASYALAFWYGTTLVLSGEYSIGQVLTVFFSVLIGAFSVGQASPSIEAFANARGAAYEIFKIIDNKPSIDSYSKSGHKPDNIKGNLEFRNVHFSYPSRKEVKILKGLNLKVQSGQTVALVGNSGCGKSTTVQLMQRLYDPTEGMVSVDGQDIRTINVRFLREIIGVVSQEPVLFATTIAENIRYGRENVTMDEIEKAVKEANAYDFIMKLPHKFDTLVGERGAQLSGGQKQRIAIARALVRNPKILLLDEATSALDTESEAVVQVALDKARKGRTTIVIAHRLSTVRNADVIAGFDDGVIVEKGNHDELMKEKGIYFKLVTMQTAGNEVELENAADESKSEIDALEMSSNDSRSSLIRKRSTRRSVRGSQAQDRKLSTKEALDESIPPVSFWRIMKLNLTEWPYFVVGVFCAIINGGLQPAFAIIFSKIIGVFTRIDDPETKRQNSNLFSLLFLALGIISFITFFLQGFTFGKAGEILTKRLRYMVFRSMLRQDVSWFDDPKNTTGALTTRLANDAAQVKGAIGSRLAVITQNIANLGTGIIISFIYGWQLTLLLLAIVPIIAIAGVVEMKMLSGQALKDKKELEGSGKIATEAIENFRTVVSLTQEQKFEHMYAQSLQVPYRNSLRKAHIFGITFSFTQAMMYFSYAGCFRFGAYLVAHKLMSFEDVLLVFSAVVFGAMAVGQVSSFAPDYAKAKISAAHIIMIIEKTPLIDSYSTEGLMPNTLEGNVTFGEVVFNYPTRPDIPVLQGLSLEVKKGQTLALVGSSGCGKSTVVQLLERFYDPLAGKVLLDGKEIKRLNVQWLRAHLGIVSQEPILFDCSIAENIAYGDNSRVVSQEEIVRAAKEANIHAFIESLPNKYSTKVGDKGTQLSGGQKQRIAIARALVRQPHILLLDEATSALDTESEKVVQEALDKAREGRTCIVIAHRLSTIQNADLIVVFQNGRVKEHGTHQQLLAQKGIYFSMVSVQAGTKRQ

[6] = biological target: EGFR wild type (EGFR WT) (Homo sapiens (Human), UniProt P00533); experiment: Cellular phosphorylation assay, EGF-stimulated EGFR phosphorylation in engineered NIH 3T3 cells, Phospho-EGFR DuoSet IC ELISA, Assay 5; format: cell-based
EGFR wild type (EGFR WT), sequence (P00533 25-1210): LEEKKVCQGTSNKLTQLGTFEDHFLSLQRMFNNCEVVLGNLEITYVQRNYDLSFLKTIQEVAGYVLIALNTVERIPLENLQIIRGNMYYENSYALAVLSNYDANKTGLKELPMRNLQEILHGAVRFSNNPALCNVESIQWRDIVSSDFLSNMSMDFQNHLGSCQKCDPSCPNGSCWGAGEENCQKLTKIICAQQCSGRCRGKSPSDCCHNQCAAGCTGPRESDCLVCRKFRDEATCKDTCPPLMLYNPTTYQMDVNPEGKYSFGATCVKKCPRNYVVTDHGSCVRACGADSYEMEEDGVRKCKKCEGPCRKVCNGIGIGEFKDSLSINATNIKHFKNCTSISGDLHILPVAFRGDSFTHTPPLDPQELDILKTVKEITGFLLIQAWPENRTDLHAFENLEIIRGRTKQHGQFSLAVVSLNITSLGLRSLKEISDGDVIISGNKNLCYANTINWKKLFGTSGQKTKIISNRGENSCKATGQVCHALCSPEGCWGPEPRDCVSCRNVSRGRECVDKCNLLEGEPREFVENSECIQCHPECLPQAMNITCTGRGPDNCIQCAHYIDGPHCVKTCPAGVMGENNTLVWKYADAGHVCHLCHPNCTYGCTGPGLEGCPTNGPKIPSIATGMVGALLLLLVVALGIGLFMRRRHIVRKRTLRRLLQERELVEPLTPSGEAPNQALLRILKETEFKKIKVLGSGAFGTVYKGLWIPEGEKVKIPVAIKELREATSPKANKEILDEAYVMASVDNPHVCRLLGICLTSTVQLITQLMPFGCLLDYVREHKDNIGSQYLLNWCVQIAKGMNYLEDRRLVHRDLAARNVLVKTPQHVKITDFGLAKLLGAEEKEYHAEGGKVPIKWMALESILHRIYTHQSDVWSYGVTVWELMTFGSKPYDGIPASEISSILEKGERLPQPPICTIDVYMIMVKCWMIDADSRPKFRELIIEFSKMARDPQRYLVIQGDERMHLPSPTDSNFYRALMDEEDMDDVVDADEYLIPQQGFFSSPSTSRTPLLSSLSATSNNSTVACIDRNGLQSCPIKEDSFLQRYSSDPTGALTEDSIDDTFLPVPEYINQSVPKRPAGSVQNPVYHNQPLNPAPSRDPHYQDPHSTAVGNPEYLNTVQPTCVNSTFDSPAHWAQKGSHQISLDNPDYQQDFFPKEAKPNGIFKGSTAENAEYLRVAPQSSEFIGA
Procedure, shortened: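 Phospho-EGFR ELISA on lysates of engineered NIH 3T3 EGFR WT cells, IC50 derived from concentration curves. Cells plated at 20,000/well overnight, given compound dilutions 1 h at 37 °C, then rEGF 100 ng/ml for a further 10 min before lysis.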

[7] = biological target: BCRP (Homo sapiens (Human), UniProt Q9UNQ0); experiment: BCRP transfected MDCKII canine Mdr1 knockout permeability/efflux, Assay 9; conditions: dog, Assay 9 Pe Ratio, efflux ratio Papp(B-A)/Papp(A-B), BCRP transfected MDCKII canine Mdr1 knockout

Compound | IC50 [1] [nM] | IC50 ([2]; read-out: Assay 1 IC50) [nM] | IC50 [3] [nM] | IC50 [4] [nM] | efflux ratio at 2 h, 1 μM [5] | IC50 [6] [nM] | IC50 ([2]; Assay 1 IC50 (nM)) [nM] | efflux ratio at 2 h, 1 μM [7]
Cc1cc(Nc2ncnc3cnc(NCC(C)(C)C#N)nc23)ccc1Oc1ccc2c(c1)ncn2C [Example 200, 2,2-dimethyl-3-((8-((3-methyl-4-((1-methyl-1H-benzo[d]imidazol-5-yl)oxy)phenyl)amino)pyrimido[5,4-d]pyrimidin-2-yl)amino)propanenitrile] | 14.9 | 18.6 | 52.6 | ≥ 10000 | 8.1 | 4520 |  | 
COCCOC1CN(c2ncc3ncnc(Nc4ccc(Oc5ccc6c(c5)ncn6C)c(C)c4)c3n2)C1 [Example 240] | 66.5 | 41.3 | 77.7 | ≥ 10000 | 2.9 |  |  | 
Cc1cc(Nc2ncnc3cnc(N4C[C@H]5CCCN5C4=O)nc23)ccc1Oc1ccc2c(c1)ncn2C [Example 66, (R)-2-(8-((3-methyl-4-((1-methyl-1H-benzo[d]imidazol-5-yl)oxy)phenyl)amino)pyrimido[5,4-d]pyrimidin-2-yl)hexahydro-3H-pyrrolo[1,2-c]imidazol-3-one] | 41.4 | 53.9 | 180 | ≥ 10000 | 11.6 | ≥ 5000 |  | 
Cc1cc(Nc2ncnc3cnc(N[C@@H]4CCNC[C@@H]4F)nc23)ccc1Oc1ccc2c(c1)ncn2C [Example 83, N2-((3S,4R)-3-fluoropiperidin-4-yl)-N8-(3-methyl-4-((1-methyl-1H-benzo[d]imidazol-5-yl)oxy)phenyl)pyrimido[5,4-d]pyrimidine-2,8-diamine] | 20.3 | 12.4 | 34.5 | 5650 | 76 | ≥ 5000 |  | 
Cc1cc(Nc2ncnc3cnc(N4C[C@@H]5CCCN5C4=O)nc23)ccc1Oc1ccc2c(c1)ncn2C [Example 254] | 44 | 53.2 | 114 | ≥ 10000 | 9.9 | ≥ 5000 |  | 
Cc1cc(Nc2ncnc3cnc(N4CCCO4)nc23)ccc1Oc1ccc2c(c1)ncn2C [Example 178, 6-(isoxazolidin-2-yl)-N-(3-methyl-4-((1-methyl-1H-benzo[d]imidazol-5-yl)oxy)phenyl)pyrimido[5,4-d]pyrimidin-4-amine] | 9.9 | 20.9 |  | ≥ 10000 | 3.7 | ≥ 5000 |  | 
Cc1cc(Nc2ncnc3cnc(NOCC(C)(C)O)nc23)ccc1Oc1ccc2c(c1)ncn2C [Example 217, 2-methyl-1-(((8-((3-methyl-4-((1-methyl-1H-benzo[d]imidazol-5-yl)oxy)phenyl)amino)pyrimido[5,4-d]pyrimidin-2-yl)amino)oxy)propan-2-ol] | 35.1 | 23.2 | 53.3 |  | 6 | ≥ 5000 |  | 
CON1CCN(c2ncc3ncnc(Nc4ccc(Oc5ccc6c(c5)ncn6C)c(Cl)c4)c3n2)CC1.O=C(O)C(F)(F)F [Example 141, N-(3-chloro-4-((1-methyl-1H-benzo[d]imidazol-5-yl)oxy)phenyl)-6-(4-methoxypiperazin-1-yl)pyrimido[5,4-d]pyrimidin-4-amine 2,2,2-trifluoroacetate] | 17.1 |  | 25.9 | 4440 |  | ≥ 5000 | 23.2 | 1.4
